The values below are quoted from earlier work in patent US20260345609A1, “METHODS FOR PROMOTING PERSISTENCE OF CELL THERAPY” (Legend Biotech Ireland Limited, priority 2022, published 2026).

For the first series the following is noted: Short infusion; cited from earlier work.
In the case of `Nc1ccn([C@@H]2O[C@H](CO)[C@@H](O)C2(F)F)c(=O)n1` [Gemcitabine], the Half-life result is listed as “Short infusion: 32-94 min;”.

The series is the same for the next values; noted with them: human, in vivo; cited from earlier work.
For the compound `COc1cccc2c1C(=O)c1c(O)c3c(c(O)c1C2=O)C[C@@](O)(C(=O)CO)C[C@@H]3O[C@H]1C[C@H](N)[C@H](O)[C@H](C)O1` [Doxorubicin], the Half-life is 1 to 3 h.

For the compound `CC[C@]1(O)C[C@H]2CN(CCc3c([nH]c4ccccc34)[C@@](C(=O)OC)(c3cc4c(cc3OC)N(C)[C@H]3[C@@](O)(C(=O)OC)[C@H](OC(C)=O)[C@]5(CC)C=CCN6CC[C@]43[C@@H]65)C2)C1` [vinblastine], the Half-life is listed as 24.8 h.

`CC(=O)O[C@H]1C(=O)[C@@]2(C)[C@H]([C@H](OC(=O)c3ccccc3)[C@]3(O)C[C@H](OC(=O)[C@H](O)[C@@H](NC(=O)c4ccccc4)c4ccccc4)C(C)=C1C3(C)C)[C@]1(OC(C)=O)CO[C@@H]1C[C@@H]2O` [Paclitaxel]: the Half-life was 5.8 h.

`CN(C)/N=N/c1[nH]cnc1C(N)=O` [Dacarbazine]: the Half-life was 5 h.

Regarding `O=P1(N(CCCl)CCCl)NCCCO1` (centres unmarked) [cyclophosphamide], the Half-life was 3 to 12 h.

As to `Nc1nc(F)nc2c1ncn2[C@@H]1O[C@H](CO)[C@@H](O)[C@@H]1O` [fludarabine], the Half-life was 20 h.

As to `O=c1[nH]cc(F)c(=O)[nH]1` [Fluorouracil], the Half-life is 0.267 h.

Turning to `Nc1nc(Cl)nc2c1ncn2[C@H]1C[C@H](O)[C@@H](CO)O1` [Cladribine], the Half-life is listed as 10 h.

Take `N[C@@H]1CCCC[C@H]1N.[Pt+2]` [Oxaliplatin]: the Half-life is 0.167 to 0.417 h.

The series is the same for the next values; noted with them: long infusion; cited from earlier work.
With `Nc1ccn([C@@H]2O[C@H](CO)[C@@H](O)C2(F)F)c(=O)n1` [Gemcitabine], the Half-life result was “long infusion: 245-638 min”.
